How the values were obtained:
Type in all cases: in vivo
Echinochloa crus-galli = assay: Herbicidal effect post-emergence, ECHCG
Experimental: (§1) Seeds of mono- and dicotyledonous weed plants and crop plants are planted in wood-fiber pots in sandy loam, covered with earth and grown in a greenhouse under good growth conditions. 2 to 3 weeks after sowing, the test plants are treated in the single-leaf stage. The compounds according to the invention, formulated in the form of wettable powders (WP) or as emulsion concentrates (EC), are then sprayed onto the green plant parts as aqueous suspension or emulsion using an application rate of 600 to 800 l of water/ha (converted) with the addition of 0.2% by weight of wetting agent. After the test plants had been in the greenhouse for ca. 3 weeks under optimum growth conditions, the effect of the preparations is scored visually in comparison with untreated controls (herbicidal effect in percent (%): 100% effect=plants have died off, 0% effect=as control plants).

Matricaria inodora = assay: Herbicidal effect post-emergence, MATIN
Experimental: as §1

Amaranthus retroflexus [1] = assay: Herbicidal effect pre-emergence, AMARE; conditions: 320 g/hectare, visual grading after 3 weeks vs untreated controls
From the text: (§2) Seeds of mono- and dicotyledonous weed plants and crop plants are planted in wood-fiber pots in sandy loam and covered with earth. The compounds according to the invention, formulated in the form of wettable powders (WP) or as emulsion concentrates (EC), are then applied to the surface of the covering earth as aqueous suspension or emulsion at an application rate corresponding to 320 g/hectare at an application rate of 600 to 800 l of water/ha (converted) with the addition of 0.2% wetting agent.
(§3) Following treatment, the pots are placed in a greenhouse and kept under good growth conditions for the test plants. The visual grading of the damage to the test plants is carried out after a test time of 3 weeks in comparison to untreated controls (herbicidal effect in percent (%): 100% effect=plants have died off, 0% effect=as control plants).

Abutilon theophrasti [2] = assay: Herbicidal effect pre-emergence, ABUTH; conditions: 320 g/hectare, visual grading after 3 weeks vs untreated controls
From the text: as §2, §3

Amaranthus retroflexus [3] = assay: Herbicidal effect post-emergence, AMARE
Experimental: as §1

Veronica persica [4] = assay: Herbicidal effect post-emergence, VERPE
Experimental: as §1

Abutilon theophrasti [5] = assay: Herbicidal effect post-emergence, ABUTH
Experimental: as §1

Veronica persica [6] = assay: Herbicidal effect pre-emergence, VERPE; conditions: 320 g/hectare, visual grading after 3 weeks vs untreated controls
From the text: as §2, §3

Viola tricolor [7] = assay: Herbicidal effect pre-emergence, VIOTR; conditions: 320 g/hectare, visual grading after 3 weeks vs untreated controls
From the text: as §2, §3

Stellaria media = assay: Herbicidal effect post-emergence, STEME
Experimental: as §1

[8] = tested on: Polygonum (Fallopia) convolvulus; assay: Herbicidal effect post-emergence, POLCO
Experimental: as §1

Viola tricolor [9] = assay: Herbicidal effect post-emergence, VIOTR
Experimental: as §1

Setaria viridis [10] = assay: Herbicidal effect post-emergence, SETVI
Experimental: as §1

[11] = tested on: Tripleurospermum inodorum; assay: Herbicidal effect pre-emergence, MATIN; conditions: 320 g/hectare, visual grading after 3 weeks vs untreated controls
From the text: as §2, §3

Ipomoea purpurea = assay: Herbicidal effect post-emergence, PHBPU
Experimental: as §1

Setaria viridis [12] = assay: Herbicidal effect pre-emergence, SETVI; conditions: 320 g/hectare, visual grading after 3 weeks vs untreated controls
From the text: as §2, §3

Alopecurus myosuroides = assay: Herbicidal effect pre-emergence, ALOMY; conditions: 320 g/hectare, visual grading after 3 weeks vs untreated controls
From the text: as §2, §3

Compound | Effect in % in respect of stated plant, ECHCG (Echinochloa crus-galli) [%] | Effect in % in respect of stated plant, MATIN (Matricaria inodora) [%] | Effect in % in respect of stated plant, AMARE (Amaranthus retroflexus [1]) [%] | Effect in % in respect of stated plant, ABUTH (Abutilon theophrasti [2]) [%] | Effect in % in respect of stated plant, AMARE (Amaranthus retroflexus [3]) [%] | Effect in % in respect of stated plant, VERPE (Veronica persica [4]) [%] | Effect in % in respect of stated plant, ABUTH (Abutilon theophrasti [5]) [%] | Effect in % in respect of stated plant, VERPE (Veronica persica [6]) [%] | Effect in % in respect of stated plant, VIOTR (Viola tricolor [7]) [%] | Effect in % in respect of stated plant, STEME (Stellaria media) [%] | Effect in % in respect of stated plant, POLCO [8] [%] | Effect in % in respect of stated plant, VIOTR (Viola tricolor [9]) [%] | Effect in % in respect of stated plant, SETVI (Setaria viridis [10]) [%] | Effect in % in respect of stated plant, MATIN [11] [%] | Effect in % in respect of stated plant, PHBPU (Ipomoea purpurea) [%] | Effect in % in respect of stated plant, SETVI (Setaria viridis [12]) [%] | Effect in % in respect of stated plant, ALOMY (Alopecurus myosuroides) [%]
Cc1ccc(-c2nc(N)c(Cl)c(C(C#N)C#N)n2)cc1.N [Compound 296] | 80 | 90 | 100 | 80 | 90 | 90 | 80 | 100 |  |  |  |  |  |  |  |  | 
CNC.N#CC(C#N)c1nc(-c2ccc(Cl)cc2)nc(N)c1Cl [Compound 310] | 90 | 85 | 100 |  | 95 | 87 | 85 | 100 | 100 | 80 | 85 | 90 | 80 | 80 | 80 | 90 | 
CN(C)C.N#CC(C#N)c1nc(-c2ccc(Cl)cc2)nc(N)c1Cl [Compound 311] | 90 | 90 | 100 | 80 | 90 | 90 | 90 | 100 | 100 | 80 | 90 | 80 | 80 | 90 |  | 90 | 
C[N+](C)(C)C.N#C[C-](C#N)c1nc(-c2ccc(Cl)cc2)nc(N)c1Cl [Compound 312] | 85 | 90 | 95 |  | 90 | 95 | 85 | 100 | 100 | 80 | 90 | 80 | 90 |  |  | 90 | 
N.N#CC(C#N)c1nc(-c2ccc(Cl)c(C(F)(F)F)c2)nc(N)c1Cl [Compound 335] |  | 80 |  |  | 80 |  |  | 100 | 80 |  |  |  |  | 80 |  |  | 
N.N#CC(C#N)c1nc(-c2ccc(Cl)cc2F)nc(N)c1Cl [Compound 345] |  | 90 | 90 | 90 | 100 | 90 |  | 100 | 80 | 90 | 80 | 80 |  | 80 | 90 | 80 | 80
Cc1ccc(-c2nc(N)c(Cl)c(C(C#N)C#N)n2)c(F)c1F.N [Compound 387] | 90 |  |  |  | 100 | 80 | 90 | 100 |  |  | 100 |  |  |  |  |  | 80
CNc1nc(-c2ccc(Cl)cc2)nc(C(C#N)C#N)c1Cl [Ex. No. 41, [5-Chloro-2-(4-chlorophenyl)-6-(methylamino)pyrimidin-4-yl]propanedinitrile] |  |  |  |  |  |  |  |  | 100 |  |  |  |  | 80 |  |  | 
N#C[C-](C#N)c1nc(-c2ccc(Cl)cc2)nc(N)c1Cl.[Na+] [Ex. No. 304, Sodium [6-amino-5-chloro-2-(4-chlorophenyl)pyrimidin-4-yl](dicyano)methanide] |  | 90 | 90 |  | 100 |  | 80 | 100 |  | 80 | 80 | 80 |  | 80 |  | 80 | 
Cc1ccc(-c2nc(N)c(Cl)c(C(C#N)C#N)n2)cc1 [compound 12] | 80 | 80 | 100 | 80 | 90 | 90 | 80 | 100 |  |  | 80 |  |  |  |  |  | 
N#CC(C#N)c1nc(-c2ccc(Cl)cc2F)nc(N)c1Cl [compound 110] | 80 | 90 | 100 |  | 90 | 90 |  | 100 | 90 | 90 | 95 | 90 | 80 |  | 80 | 80 | 
N#CC(C#N)c1nc(-c2ccc(Br)cc2F)nc(N)c1Cl [compound 208] |  | 100 | 80 | 100 | 100 | 90 | 90 | 100 |  | 90 | 80 | 90 |  |  | 80 | 90 | 
CC(C)c1nc(N)c(Cl)c(C(C#N)C#N)n1 [compound 265] |  | 90 |  |  | 100 | 90 | 80 |  |  | 90 | 90 |  |  |  | 100 |  | 

Source: US8309557B2, “Pyrimidin-4-ylpropanedinitrile derivatives, processes for their preparation and their use as herbicides and plant growth regulators” (Bayer Intellectual Property GmbH, priority 2009, dated 2012)
